In US8623859B2, “Bradykinin B1 antagonists” (Evotec AG, priority 2008, dated 2014):
Where a name gives a salt, the structure may show the parent alone.

Target: T1, human B1 (Homo sapiens, UniProt P46663)
T1 construct: host or cells: CHO-K1
T1 sequence (P46663 1-353): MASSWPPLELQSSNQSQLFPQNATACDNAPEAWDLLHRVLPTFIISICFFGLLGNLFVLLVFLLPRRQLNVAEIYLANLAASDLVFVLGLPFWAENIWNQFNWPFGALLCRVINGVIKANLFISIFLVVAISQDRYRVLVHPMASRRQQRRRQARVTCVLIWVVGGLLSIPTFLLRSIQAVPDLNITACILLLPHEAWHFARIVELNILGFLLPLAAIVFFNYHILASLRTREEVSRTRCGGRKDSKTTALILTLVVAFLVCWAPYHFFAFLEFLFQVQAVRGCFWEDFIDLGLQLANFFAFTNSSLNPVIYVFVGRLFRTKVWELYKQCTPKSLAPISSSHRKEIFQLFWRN
Assay: Calcium flux assay for Bradykinin B1 antagonist, CHO-K1 cell line expressing human B1
Type: cell-based
Details: CHO-K1 cells expressing human B1, agonist Lys-(Des-Arg)-Bradykinin, read-out: Potency (IC50 value against human B1)
Procedure, shortened: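 Inhibition of B1 agonist-evoked intracellular Ca2+ rise was followed by continuous fluorescence at 538 nm, with integrated, background-normalized signals plotted versus log compound concentration. Test compounds (eight 10-fold dilutions, triplicate, 1% DMSO final) were added 30 min at 25° C beforehand to Fluo-4AM-loaded human B1 CHO-K1 cells in pH 7.4 assay buffer.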

SMILES: COc1cc(C)c(S(=O)(=O)N(Cc2cc(C(=O)N(C)Cc3ccc(CN4CCC(C(=O)N(C)C)C4)cc3)co2)C2CC2)c(C)c1 (stereo not shown) [Ex 147, 1-(4-{[{[5-({Cyclopropyl[(4-methoxy-2,6-dimethylphenyl)sulfonyl]amino}methyl)furan-3-yl]carbonyl}(methyl)amino]methyl}benzyl)-N,N-dimethylpyrrolidine-3-carboxamide]
- IC50: 10 to 100 nM

SMILES: COc1cc(C)c(S(=O)(=O)N(C)Cc2cc(C(=O)NCCc3ccc(Nc4nccc(N)n4)cc3)co2)c(C)c1 [Ex 44, N-(2-{4-[(4-aminopyrimidin-2-yl)amino]phenyl}ethyl)-5-({[(4-methoxy-2,6-dimethylphenyl)sulfonyl](methyl)amino}methyl)furan-3-carboxamide]
- IC50: 100 to 1000 nM

SMILES: COc1cc(C)c(S(=O)(=O)N(Cc2nc(C(=O)N3CCN(Cc4cncn4C)CC3)co2)C2CC2)c(C)c1 [Ex 251, N-Cyclopropyl-4-methoxy-2,6-dimethyl-N-{[4-({4-[(1-methyl-1H-imidazol-5-yl)methyl]piperazin-1-yl}carbonyl)-1,3-oxazol-2-yl]methyl}benzenesulfonamide]
- IC50: 100 to 1000 nM

SMILES: COc1cc(C)c(S(=O)(=O)N(C)Cc2cc(C(=O)N3CCN(CC4CCN(C)CC4)CC3)co2)c(C)c1 [Ex 32, 4-methoxy-N,2,6-trimethyl-N-{[4-({4-[(1-methylpiperidin-4-yl)methyl]piperazin-1-yl}carbonyl)furan-2-yl]methyl}benzenesulfonamide]
- IC50: 100 to 1000 nM

SMILES: COc1cc(C)c(S(=O)(=O)N(C)Cc2cc(C(=O)NCCc3ccc(C4=NCCN4)cc3)c(C)o2)c(C)c1 [Ex 61, N-{2-[4-(4,5-dihydro-1H-imidazol-2-yl)phenyl]ethyl}-5-({[(4-methoxy-2,6-dimethylphenyl)sulfonyl](methyl)amino}methyl)-2-methylfuran-3-carboxamide]
- IC50: 10 to 100 nM

SMILES: COc1cc(C)c(S(=O)(=O)N(Cc2cc(C(=O)N(C)CCc3ccc(C4=NCCN4)cc3)co2)C(C)C)c(C)c1 [Ex 48, N-{2-[4-(4,5-dihydro-1H-imidazol-2-yl)phenyl]ethyl}-5-({[(4-methoxy-2,6-dimethylphenyl)sulfonyl](1-methylethyl)amino}methyl)-N-methylfuran-3-carboxamide]
- IC50: 10 to 100 nM

SMILES: COc1cc(C)c(S(=O)(=O)N(Cc2nc(C(=O)N(C)Cc3csc(CN4CCCC4)n3)co2)C2CC2)c(C)c1 [Ex 160, 2-({Cyclopropyl[(4-methoxy-2,6-dimethylphenyl)sulfonyl]amino}methyl)-N-methyl-N-{[2-(pyrrolidin-1-ylmethyl)-1,3-thiazol-4-yl]methyl}-1,3-oxazole-4-carboxamide]
- IC50: 10 to 100 nM

SMILES: COc1cc(C)c(S(=O)(=O)N(Cc2nc(C(=O)N3CCN(Cc4cccnc4)CC3)co2)C2CC2)c(C)c1 [Ex 163, N-Cyclopropyl-4-methoxy-2,6-dimethyl-N-[(4-{[4-(pyridin-3-ylmethyl)piperazin-1-yl]carbonyl}-1,3-oxazol-2-yl)methyl]benzenesulfonamide trifluoroacetate]
- IC50: < 10 nM

SMILES: CCN1CCN(CCNC(=O)c2coc(CN(C3CC3)S(=O)(=O)c3c(C)cc(OC)cc3C)c2)CC1 [Ex 113, 5-({Cyclopropyl[(4-methoxy-2,6-dimethylphenyl)sulfonyl]amino}methyl)-N-[2-(4-ethylpiperazin-1-yl)ethyl]furan-3-carboxamide trifluoroacetate]
- IC50: 100 to 1000 nM

SMILES: COc1cc(C)c(S(=O)(=O)N(C)Cc2cc(C(=O)NC(C)c3ccc(CN4CCC(O)C4)cc3)co2)c(C)c1 (stereo not shown) [Ex 91, N-(1-{4-[(3-Hydroxypyrrolidin-1-yl)methyl]phenyl}ethyl)-5-({[(4-methoxy-2,6-dimethylphenyl)sulfonyl](methyl)amino}methyl)furan-3-carboxamide]
- IC50: 100 to 1000 nM

SMILES: COc1cc(C)c(S(=O)(=O)N(Cc2cc(C(=O)NCc3cccc(CN4CCCC4)c3)co2)C2CC2)c(C)c1 [Ex 54, 5-({Cyclopropyl[(4-methoxy-2,6-dimethylphenyl)sulfonyl]amino}methyl)-N-[3-(pyrrolidin-1-ylmethyl)benzyl]furan-3-carboxamide]
- IC50: 10 to 100 nM

SMILES: COc1cc(C)c(S(=O)(=O)N(C)Cc2cc(C(=O)N(C)Cc3ccc(CN4CCC(O)C4)cc3)co2)c(C)c1 (stereo not shown) [Ex 135, N-{4-[(3-Hydroxypyrrolidin-1-yl)methyl]benzyl}-5-({[(4-methoxy-2,6-dimethylphenyl)sulfonyl](methyl)amino}methyl)-N-methylfuran-3-carboxamide]
- IC50: 10 to 100 nM

SMILES: COc1cc(C)c(S(=O)(=O)N(Cc2nc(C(=O)NCc3ccc(CN4CCCC4)cc3)co2)C2CC2)c(C)c1 [Ex 76, 2-({Cyclopropyl[(4-methoxy-2,6-dimethylphenyl)sulfonyl]amino}methyl)-N-[4-(pyrrolidin-1-ylmethyl)benzyl]-1,3-oxazole-4-carboxamide]
- IC50: < 10 nM

SMILES: CCN1CCN(CCCNC(=O)c2coc(CN(C3CC3)S(=O)(=O)c3c(C)cc(OC)cc3C)n2)CC1 [Ex 242, 2-({Cyclopropyl[(4-methoxy-2,6-dimethylphenyl)sulfonyl]amino}methyl)-N-[3-(4-ethylpiperazin-1-yl)propyl]-1,3-oxazole-4-carboxamide trifluoroacetate]
- IC50: 10 to 100 nM

SMILES: Cc1cc(S(=O)(=O)N(Cc2nc(C(=O)N(C)Cc3ccc(CN4CCCC4)cc3)co2)C2CC2)c(C)cc1Cl [Ex 218, 2-({[(4-Chloro-2,5-dimethylphenyl)sulfonyl](cyclopropyl)amino}methyl)-N-methyl-N-[4-(pyrrolidin-1-ylmethyl)benzyl]-1,3-oxazole-4-carboxamide trifluoroacetate]
- IC50: 100 to 1000 nM

SMILES: COc1cc(C)c(S(=O)(=O)N(C)Cc2cc(C(=O)NCCc3ccc(Nc4cccc[n+]4C)cc3)co2)c(C)c1 [Ex 13, 2-({4-[2-({[5-({[(4-methoxy-2,6-dimethylphenyl)sulfonyl](methyl)amino}methyl)furan-3-yl]carbonyl}amino)ethyl]phenyl}amino)-1-methylpyridinium iodide]
- IC50: < 10 nM

SMILES: COc1cc(C)c(S(=O)(=O)N(Cc2cc(C(=O)N3CCN(C4CC5CCC(C4)N5C)CC3)co2)C2CC2)c(C)c1 (stereo not shown) [Ex 107, N-Cyclopropyl-4-methoxy-2,6-dimethyl-N-[(4-{[4-(8-methyl-8-azabicyclo[3.2.1]oct-3-yl)piperazin-1-yl]carbonyl}furan-2-yl)methyl]benzenesulfonamide trifluoroacetate]
- IC50: 10 to 100 nM

SMILES: COc1cc(C)c(S(=O)(=O)N(C)Cc2cc(C(=O)NCCc3ccc(C4=NCC(C)(C)N4)cc3)co2)c(C)c1 [Ex 94, N-{2-[4-(5,5-Dimethyl-4,5-dihydro-1H-imidazol-2-yl)phenyl]ethyl}-5-({[(4-methoxy-2,6-dimethylphenyl)sulfonyl](methyl)amino}methyl)furan-3-carboxamide trifluoroacetate]
- IC50: < 10 nM

SMILES: COc1cc(C)c(S(=O)(=O)N(C)Cc2cc(C(=O)NCc3ccc(CN4CCCCC4C)cc3)co2)c(C)c1 (stereo not shown) [Ex 99, 5-({[(4-Methoxy-2,6-dimethylphenyl)sulfonyl](methyl)amino}methyl)-N-{4-[(2-methylpiperidin-1-yl)methyl]benzyl}furan-3-carboxamide trifluoroacetate]
- IC50: 100 to 1000 nM

SMILES: COc1cc(C)c(S(=O)(=O)N(Cc2noc(C(=O)N3CCC(CCN4CCCC4)CC3)n2)C2CC2)c(C)c1 [Ex 312, N-Cyclopropyl-4-methoxy-2,6-dimethyl-N-[(5-{[4-(2-pyrrolidin-1-ylethyl)piperidin-1-yl]carbonyl}-1,2,4-oxadiazol-3-yl)methyl]benzenesulfonamide]
- IC50: < 10 nM

SMILES: COc1cc(C)c(S(=O)(=O)N(C)Cc2noc(C(=O)N3CCN(CCN4CCCC4)CC3)n2)c(C)c1 [Ex 308, 4-Methoxy-N,2,6-trimethyl-N-[(5-{[4-(2-pyrrolidin-1-ylethyl)piperazin-1-yl]carbonyl}-1,2,4-oxadiazol-3-yl)methyl]benzenesulfonamide]
- IC50: 100 to 1000 nM

SMILES: CCN(Cc1ccc(CN2CCCC2)cc1)C(=O)c1coc(CN(C)S(=O)(=O)c2c(C)cc(OC)cc2C)c1 [Ex 150, N-Ethyl-5-({[(4-methoxy-2,6-dimethylphenyl)sulfonyl](methyl)amino}methyl)-N-[4-(pyrrolidin-1-ylmethyl)benzyl]furan-3-carboxamide trifluoroacetate]
- IC50: 10 to 100 nM

SMILES: COc1cc(C)c(S(=O)(=O)N(Cc2cc(C(=O)NCc3ccc(CN4CCCC4)c(F)c3)co2)C2CC2)c(C)c1 [Ex 154, 5-({Cyclopropyl[(4-methoxy-2,6-dimethylphenyl)sulfonyl]amino}methyl)-N-[3-fluoro-4-(pyrrolidin-1-ylmethyl)benzyl]furan-3-carboxamide trifluoroacetate]
- IC50: 100 to 1000 nM

SMILES: COc1cc(C)c(S(=O)(=O)N(Cc2cc(C(=O)N3CCC(CCN4CCCC4)CC3)co2)C2CC2)c(C)c1 [Ex 120, N-Cyclopropyl-4-methoxy-2,6-dimethyl-N-[(4-{[4-(2-pyrrolidin-1-ylethyl)piperidin-1-yl]carbonyl}furan-2-yl)methyl]benzenesulfonamide trifluoroacetate]
- IC50: < 10 nM

SMILES: COc1cc(C)c(S(=O)(=O)N(Cc2nc(C(=O)N3CCC(OC4CCN(C)C4)CC3)co2)C2CC2)c(C)c1 (stereo not shown) [Ex 247, N-Cyclopropyl-4-methoxy-2,6-dimethyl-N-{[4-({4-[(1-methylpyrrolidin-3-yl)oxy]piperidin-1-yl}carbonyl)-1,3-oxazol-2-yl]methyl}benzenesulfonamide]
- IC50: 100 to 1000 nM
